# Results published in patent publication US9018236B2, “Cyclodextrin-based microemulsions, and dermatological uses thereof” (Precision Dermatology, Inc., priority 2012, dated 2015).
# Tests used:
# [1] = Solubility/dispersibility of retinol in the Labrasol-HPGCD-water microemulsion system; type: physicochemical; settings: final retinol concentration 1.2%; 15% Labrasol, 5% HPGCD in water
# Excerpt: Any two components (examples: Labrasol®-water, HPXCD-water, or Labrasol®-HPXCD) were mixed (in different ratios) in different scintillation vials and then the third component was titrated to each vial until a clear-to-turbid or turbid-to-clear transition occurred (in simple situations). Finally wt % percentages data for each component (Labrasol®, water, and cyclodextrin) were plotted to construct the ternary phase diagram.
# Cyclodextrin used: hydroxypropyl-X-cyclodextrin (X=alpha, beta, or gamma).
# Drug can be dissolved in the individual components or any of the two-component combination systems, followed by microemulsion formulation. Alternatively Drug can be directly added to the previously prepared microemulsion phase followed by shaking until a clear solution is achieved (when the achievable drug concentration is known previously).
# [2] = cited from earlier work
compound,measurement,setting,value
CC1=C(/C=C/C(C)=C/C=C/C(C)=C/CO)C(C)(C)CCC1 [Retinol],miscibility in Labrasol-HPGCD-water microemulsion system,[1],complete miscibility
same,miscibility in water,[2],immiscible
